Experimental data taken from publication PMC5218480 (PLoS ONE, 2017).

System: MV-4-11 cells
Assay: Gene expression microarray analysis (Affymetrix PrimeView) and GSEA
Format: cell-based, human
Design: RFU PODN (11730768_x_at) / Fold change /veh PODN (11730768_x_at) / RFU LINC00158 (11744669_a_at) / Fold change /veh LINC00158 (11744669_a_at) / RFU DUSP10 (11751237_a_at) / Fold change /veh DUSP10 (11751237_a_at) / RFU ID3 (11757404_x_at) / Fold change /veh ID3 (11757404_x_at) / RFU PLEKHG5 (11737974_s_at) / Fold change /veh PLEKHG5 (11737974_s_at) / RFU LRRC4B (11730491_at) / Fold change /veh LRRC4B (11730491_at) / RFU GIMAP4 (11747438_a_at) / Fold change /veh GIMAP4 (11747438_a_at) / RFU KRT8 (11758183_x_at) / Fold change /veh KRT8 (11758183_x_at) / RFU CNN1 (11734310_a_at) / Fold change /veh CNN1 (11734310_a_at) / RFU VPS37D (11726825_at) / Fold change /veh VPS37D (11726825_at) / RFU C10orf10 (11716522_x_at) / Fold change /veh C10orf10 (11716522_x_at) / RFU KIR2DL2 /// KIR2DL4 /// KIR2DL5A /// KIR2DL5B /// KIR2DS1 /// KIR2DS2 /// KIR2DS3 /// KIR2DS4 /// KIR3DL3 /// KIR3DL3 /// KIR3DS1 (11738374_at) / Fold change /veh KIR2DL2 /// KIR2DL4 /// KIR2DL5A /// KIR2DL5B /// KIR2DS1 /// KIR2DS2 /// KIR2DS3 /// KIR2DS4 /// KIR3DL3 /// KIR3DL3 /// KIR3DS1 (11738374_at) / RFU C1QL1 (11718748_at) / Fold change /veh C1QL1 (11718748_at) / RFU TMPRSS4 (11747572_a_at) / Fold change /veh TMPRSS4 (11747572_a_at) / RFU HAMP (11756126_x_at) / Fold change /veh HAMP (11756126_x_at) / RFU RNFT2 (11725882_a_at) / Fold change /veh RNFT2 (11725882_a_at) / RFU NR4A2 (11747474_a_at) / Fold change /veh NR4A2 (11747474_a_at) / RFU ABCC12 (11746883_a_at) / Fold change /veh ABCC12 (11746883_a_at) / RFU TMEM136 (11760407_x_at) / Fold change /veh TMEM136 (11760407_x_at) / RFU CLDN22 /// WWC2 (11732394_at) / Fold change /veh CLDN22 /// WWC2 (11732394_at) / RFU HLA-DPB1 (11760878_x_at) / Fold change /veh HLA-DPB1 (11760878_x_at) / RFU SPINT1 (11716480_a_at) / Fold change /veh SPINT1 (11716480_a_at) / RFU GAP43 (11754022_s_at) / Fold change /veh GAP43 (11754022_s_at) / RFU A4GNT (11735810_at) / Fold change /veh A4GNT (11735810_at) / RFU PRB3 (11715151_x_at) / Fold change /veh PRB3 (11715151_x_at) / RFU TUBB4B (11761932_at) / Fold change /veh TUBB4B (11761932_at) / RFU CAPN14 (11732068_a_at) / Fold change /veh CAPN14 (11732068_a_at) / RFU TMCC2 (11721928_a_at) / Fold change /veh TMCC2 (11721928_a_at) / RFU IRGQ (11745062_a_at) / Fold change /veh IRGQ (11745062_a_at) / RFU FAM174B (11720279_a_at) / Fold change /veh FAM174B (11720279_a_at) / RFU TMPRSS4 (11748680_a_at) / Fold change /veh TMPRSS4 (11748680_a_at) / RFU FAM212B (11763350_a_at) / Fold change /veh FAM212B (11763350_a_at) / RFU PLEKHG5 (11743358_a_at) / Fold change /veh PLEKHG5 (11743358_a_at) / RFU ZSCAN30 (11745921_a_at) / Fold change /veh ZSCAN30 (11745921_a_at) / RFU CMKLR1 (11741424_a_at) / Fold change /veh CMKLR1 (11741424_a_at) / RFU LOC101060620 /// MAPK8IP1 (11723275_at) / Fold change /veh LOC101060620 /// MAPK8IP1 (11723275_at) / RFU SPTSSB (11747773_x_at) / Fold change /veh SPTSSB (11747773_x_at) / RFU PRSS12 (11739890_at) / Fold change /veh PRSS12 (11739890_at) / RFU BIN1 (11741810_x_at) / Fold change /veh BIN1 (11741810_x_at) / RFU WNT11 (11732464_a_at) / Fold change /veh WNT11 (11732464_a_at) / RFU C10orf10 (11716521_a_at) / Fold change /veh C10orf10 (11716521_a_at) / RFU C5orf56 (11738089_at) / Fold change /veh C5orf56 (11738089_at) / RFU CYB561 (11721691_x_at) / Fold change /veh CYB561 (11721691_x_at) / RFU ANKRD19P (11752326_a_at) / Fold change /veh ANKRD19P (11752326_a_at) / RFU OR2T12 /// OR2T33 /// OR2T8 (11738714_s_at) / Fold change /veh OR2T12 /// OR2T33 /// OR2T8 (11738714_s_at) / RFU VCAN (11748164_a_at) / Fold change /veh VCAN (11748164_a_at) / RFU JSRP1 (11732532_at) / Fold change /veh JSRP1 (11732532_at) / RFU KRTAP10-11 (11738290_x_at) / Fold change /veh KRTAP10-11 (11738290_x_at) / RFU MYO3A (11730013_a_at) / Fold change /veh MYO3A (11730013_a_at) / RFU EBF3 (11725865_a_at) / Fold change /veh EBF3 (11725865_a_at) / RFU CAMK2N1 (11719241_x_at) / Fold change /veh CAMK2N1 (11719241_x_at) / RFU C5orf56 (11738088_a_at) / Fold change /veh C5orf56 (11738088_a_at) / RFU OLFML3 (11715873_a_at) / Fold change /veh OLFML3 (11715873_a_at) / RFU LOC100653217 /// NTM (11731650_a_at) / Fold change /veh LOC100653217 /// NTM (11731650_a_at) / RFU MAPK11 (11762145_a_at) / Fold change /veh MAPK11 (11762145_a_at) / RFU FIZ1 (11724087_x_at) / Fold change /veh FIZ1 (11724087_x_at) / RFU OASL (11726364_x_at) / Fold change /veh OASL (11726364_x_at) / RFU SOX15 (11748057_x_at) / Fold change /veh SOX15 (11748057_x_at) / RFU CD79A (11719716_a_at) / Fold change /veh CD79A (11719716_a_at) / RFU HIST1H1D (11736915_at) / Fold change /veh HIST1H1D (11736915_at) / RFU CASKIN2 (11723855_a_at) / Fold change /veh CASKIN2 (11723855_a_at) / RFU LOC730098 (11760151_x_at) / Fold change /veh LOC730098 (11760151_x_at) / RFU OR4N2 (11742367_at) / Fold change /veh OR4N2 (11742367_at) / RFU PRRT2 (11749266_a_at) / Fold change /veh PRRT2 (11749266_a_at) / RFU SNX32 (11753110_a_at) / Fold change /veh SNX32 (11753110_a_at) / RFU CDHR5 (11726645_a_at) / Fold change /veh CDHR5 (11726645_a_at) / RFU RCAN1 (11760418_a_at) / Fold change /veh RCAN1 (11760418_a_at) / RFU FAM167A (11723789_a_at) / Fold change /veh FAM167A (11723789_a_at) / RFU FAM26E (11764081_at) / Fold change /veh FAM26E (11764081_at) / RFU ISYNA1 (11749810_s_at) / Fold change /veh ISYNA1 (11749810_s_at) / RFU ACY1 (11761880_at) / Fold change /veh ACY1 (11761880_at) / RFU 11764098_at / Fold change /veh 11764098_at / RFU SAMD14 (11745864_x_at) / Fold change /veh SAMD14 (11745864_x_at) / RFU NPB (11741838_a_at) / Fold change /veh NPB (11741838_a_at) / RFU TMPRSS6 (11731388_a_at) / Fold change /veh TMPRSS6 (11731388_a_at) / RFU KRTAP10-2 (11738614_at) / Fold change /veh KRTAP10-2 (11738614_at) / RFU ARHGAP8 /// PRR5-ARHGAP8 (11727945_x_at) / Fold change /veh ARHGAP8 /// PRR5-ARHGAP8 (11727945_x_at) / RFU KRTAP5-7 /// NADSYN1 (11734609_at) / Fold change /veh KRTAP5-7 /// NADSYN1 (11734609_at) / RFU RASL12 (11751679_a_at) / Fold change /veh RASL12 (11751679_a_at) / RFU CDKN2B (11736163_a_at) / Fold change /veh CDKN2B (11736163_a_at) / RFU PRF1 (11729649_at) / Fold change /veh PRF1 (11729649_at) / RFU, ZNF638 /// ZNF638-IT1 / Fold change vs veh, ZNF638 /// ZNF638-IT1 / RFU, PANK3 / Fold change vs veh, PANK3 / RFU, SH3YL1 / Fold change vs veh, SH3YL1 / RFU, ZEB2 / Fold change vs veh, ZEB2 / RFU, NRIP1 / Fold change vs veh, NRIP1 / RFU, PTTG1IP / Fold change vs veh, PTTG1IP / RFU, CAPN2 / Fold change vs veh, CAPN2 / RFU, MED14 / Fold change vs veh, MED14 / RFU, SNORA58 / Fold change vs veh, SNORA58 / RFU, C1orf63 / Fold change vs veh, C1orf63 / RFU, LRRFIP1 / Fold change vs veh, LRRFIP1 / RFU, NDUFAF7 / Fold change vs veh, NDUFAF7 / RFU, SLC12A2 / Fold change vs veh, SLC12A2 / RFU, IBTK / Fold change vs veh, IBTK / RFU, ESF1 / Fold change vs veh, ESF1 / Fold change vs veh, TMEM50B / RFU, TAOK1 / Fold change vs veh, TAOK1 / RFU, ACBD3 / Fold change vs veh, ACBD3 / RFU, TMA16 / Fold change vs veh, TMA16 / RFU, RWDD3 / Fold change vs veh, RWDD3 / RFU, BCAT1 / Fold change vs veh, BCAT1 / RFU, EDEM3 / Fold change vs veh, EDEM3 / RFU, TMEM33 / Fold change vs veh, TMEM33 / RFU, WDR75 / Fold change vs veh, WDR75 / RFU, AHCTF1 / Fold change vs veh, AHCTF1 / RFU, TFRC / Fold change vs veh, TFRC / RFU, ZDHHC17 / Fold change vs veh, ZDHHC17 / RFU, NOM1 / Fold change vs veh, NOM1 / RFU, ARL8B / Fold change vs veh, ARL8B / RFU, ZBTB11 / Fold change vs veh, ZBTB11 / RFU, TAMM41 / Fold change vs veh, TAMM41 / RFU, KIAA1704 /// LOC100996395 / Fold change vs veh, KIAA1704 /// LOC100996395 / RFU, ING1 / Fold change vs veh, ING1 / RFU, TRMT61B / Fold change vs veh, TRMT61B / RFU, FUBP3 / Fold change vs veh, FUBP3 / RFU, TP53 / Fold change vs veh, TP53 / RFU, TNKS2 / Fold change vs veh, TNKS2 / RFU, ZFP14 / Fold change vs veh, ZFP14 / RFU, ACTR2 / Fold change vs veh, ACTR2 / RFU, PPP3R1 / Fold change vs veh, PPP3R1 / RFU, PIK3R1 / Fold change vs veh, PIK3R1 / RFU, HNRNPA1 / Fold change vs veh, HNRNPA1 / RFU, RNF170 / Fold change vs veh, RNF170 / RFU, ZNF28 / Fold change vs veh, ZNF28 / RFU, RNGTT / Fold change vs veh, RNGTT / RFU, OGT / Fold change vs veh, OGT / RFU, BRD1 / Fold change vs veh, BRD1 / RFU, MARS / Fold change vs veh, MARS / RFU, ZNF655 / Fold change vs veh, ZNF655 / RFU, FAHD1 / Fold change vs veh, FAHD1 / RFU, BDP1 / Fold change vs veh, BDP1 / RFU, LRRCC1 / Fold change vs veh, LRRCC1 / RFU, ARID1A / Fold change vs veh, ARID1A / RFU, ZNF146 / Fold change vs veh, ZNF146 / RFU, ZNF330 / Fold change vs veh, ZNF330 / RFU, GPN3 / Fold change vs veh, GPN3 / RFU, C9orf123 / Fold change vs veh, C9orf123 / RFU, N4BP2L2 / Fold change vs veh, N4BP2L2 / RFU, ARFIP1 / Fold change vs veh, ARFIP1 / RFU, FAM179B / Fold change vs veh, FAM179B / RFU, BCL10 / Fold change vs veh, BCL10 / RFU, UHRF1BP1L / Fold change vs veh, UHRF1BP1L / RFU, BET1 / Fold change vs veh, BET1 / RFU, CNOT2 / Fold change vs veh, CNOT2 / RFU, ZNF268 / Fold change vs veh, ZNF268 / Fold change vs veh, ZNF507 / RFU, DGCR2 / Fold change vs veh, DGCR2 / RFU, WDSUB1 / Fold change vs veh, WDSUB1 / Fold change vs veh, HSP90B1 /// MIR3652 / RFU, ADSS / Fold change vs veh, ADSS / RFU, GK / Fold change vs veh, GK / RFU, ZNF148 / Fold change vs veh, ZNF148 / RFU, TAF9 / Fold change vs veh, TAF9 / RFU, SLC1A5 / Fold change vs veh, SLC1A5 / RFU, SLMO2 / Fold change vs veh, SLMO2 / RFU, ABCC4 / Fold change vs veh, ABCC4 / RFU, LOC101060439 /// RAP1B / Fold change vs veh, LOC101060439 /// RAP1B / RFU, RFX7 / Fold change vs veh, RFX7 / RFU, GTPBP10 / Fold change vs veh, GTPBP10 / RFU, CNEP1R1 / Fold change vs veh, CNEP1R1 / RFU, BIVM-ERCC5 /// ERCC5 / Fold change vs veh, BIVM-ERCC5 /// ERCC5 / RFU, ILF3 / Fold change vs veh, ILF3 / RFU 11762660_at / Fold change /veh 11762660_at / RFU VCAN (11757783_s_at) / Fold change /veh VCAN (11757783_s_at) / RFU DDX43 (11728927_at) / Fold change /veh DDX43 (11728927_at) / RFU KRT8 (11758188_x_at) / Fold change /veh KRT8 (11758188_x_at) / RFU NKD1 (11759106_at) / Fold change /veh NKD1 (11759106_at) / RFU SRD5A1 (11742802_a_at) / Fold change /veh SRD5A1 (11742802_a_at) / RFU TPSAB1 /// TPSB2 (11721975_s_at) / Fold change /veh TPSAB1 /// TPSB2 (11721975_s_at) / RFU GSTM3 (11746129_a_at) / Fold change /veh GSTM3 (11746129_a_at) / RFU IL23R (11737362_x_at) / Fold change /veh IL23R (11737362_x_at) / RFU TMEM51 (11727254_a_at) / Fold change /veh TMEM51 (11727254_a_at) / RFU PIWIL2 (11732686_x_at) / Fold change /veh PIWIL2 (11732686_x_at) / RFU ORM1 (11744905_x_at) / Fold change /veh ORM1 (11744905_x_at) / RFU CCDC152 (11743942_at) / Fold change /veh CCDC152 (11743942_at) / RFU ECM1 (11717891_a_at) / Fold change /veh ECM1 (11717891_a_at) / RFU IL23R (11748794_a_at) / Fold change /veh IL23R (11748794_a_at) / RFU TNFAIP8L3 (11732012_x_at) / Fold change /veh TNFAIP8L3 (11732012_x_at) / RFU MBOAT4 (11741988_at) / Fold change /veh MBOAT4 (11741988_at) / RFU 11764193_at / Fold change /veh 11764193_at / RFU TMEM53 (11763286_at) / Fold change /veh TMEM53 (11763286_at) / RFU MAGEB2 (11727129_at) / Fold change /veh MAGEB2 (11727129_at) / RFU TMEM200A (11744735_a_at) / Fold change /veh TMEM200A (11744735_a_at) / RFU CCDC152 (11751479_a_at) / Fold change /veh CCDC152 (11751479_a_at) / RFU FAM211A (11726209_a_at) / Fold change /veh FAM211A (11726209_a_at) / RFU RGS16 (11746705_a_at) / Fold change /veh RGS16 (11746705_a_at) / RFU VCAN (11755009_s_at) / Fold change /veh VCAN (11755009_s_at) / RFU RHOB (11743442_s_at) / Fold change /veh RHOB (11743442_s_at) / RFU RGS16 (11720943_a_at) / Fold change /veh RGS16 (11720943_a_at) / RFU RGS16 (11720944_at) / Fold change /veh RGS16 (11720944_at) / RFU, VPS4B / Fold change vs veh, VPS4B / RFU, CREB1 / Fold change vs veh, CREB1 / RFU, DNAJC13 / Fold change vs veh, DNAJC13 / RFU, GNAQ / Fold change vs veh, GNAQ / RFU, CDK5R1 / Fold change vs veh, CDK5R1 / RFU, ZRANB3 / Fold change vs veh, ZRANB3 / RFU, CUL4A / Fold change vs veh, CUL4A / RFU, CCNY / Fold change vs veh, CCNY / RFU, UFL1 / Fold change vs veh, UFL1 / RFU, COG3 / Fold change vs veh, COG3 / RFU, DIAPH2 / Fold change vs veh, DIAPH2 / RFU, SKA2 / Fold change vs veh, SKA2 / RFU, AFF3 / Fold change vs veh, AFF3 / RFU, LMF1 / Fold change vs veh, LMF1 / RFU, IPO11 / Fold change vs veh, IPO11 / RFU, DFFB / Fold change vs veh, DFFB / RFU, FOXP1 / Fold change vs veh, FOXP1 / RFU, CARD8 / Fold change vs veh, CARD8 / RFU, STRN3 / Fold change vs veh, STRN3 / RFU, ADK / Fold change vs veh, ADK / RFU, RASSF2 / Fold change vs veh, RASSF2 / RFU, WIPF1 / Fold change vs veh, WIPF1 / RFU, LARP1B / Fold change vs veh, LARP1B / RFU, RASA1 / Fold change vs veh, RASA1 / RFU, RB1 / Fold change vs veh, RB1 / RFU, PPFIA1 / Fold change vs veh, PPFIA1 / RFU, MAT2A / Fold change vs veh, MAT2A / RFU, CCT5 / Fold change vs veh, CCT5 / RFU, WDR92 / Fold change vs veh, WDR92 / RFU, CUX1 / Fold change vs veh, CUX1 / RFU, TTC7A / Fold change vs veh, TTC7A / RFU, TMEM135 / Fold change vs veh, TMEM135 / RFU, DEPTOR / Fold change vs veh, DEPTOR / RFU, CPM / Fold change vs veh, CPM / RFU, DNAJB6 / Fold change vs veh, DNAJB6 / RFU, CACNA2D3 / Fold change vs veh, CACNA2D3 / RFU, DTX4 / Fold change vs veh, DTX4 / RFU, TFCP2 / Fold change vs veh, TFCP2 / RFU, GMCL1 /// GMCL1P1 / Fold change vs veh, GMCL1 /// GMCL1P1 / RFU, AEBP2 / Fold change vs veh, AEBP2 / RFU, SNHG1 /// SNORD22 /// SNORD25 /// SNORD26 /// SNORD27 /// SNORD28 /// SNORD29 /// SNORD31 / Fold change vs veh, SNHG1 /// SNORD22 /// SNORD25 /// SNORD26 /// SNORD27 /// SNORD28 /// SNORD29 /// SNORD31 / Fold change (Aza/veh), C12orf56 (ProbeSet 11735607_a_at) / Fold change (ACY-1035/veh), C12orf56 (ProbeSet 11735607_a_at) / Fold change (Aza/veh), FGFR1OP (ProbeSet 11751329_s_at) / Fold change (ACY-1035/veh), FGFR1OP (ProbeSet 11751329_s_at) / Fold change (Aza/veh), VPS36 (ProbeSet 11739960_a_at) / Fold change (ACY-1035/veh), VPS36 (ProbeSet 11739960_a_at) / RFU SYPL1 (11715823_x_at) / Fold change /veh SYPL1 (11715823_x_at) / RFU IGFBP7 (11715501_s_at) / Fold change /veh IGFBP7 (11715501_s_at) / RFU REEP3 (11722064_at) / Fold change /veh REEP3 (11722064_at) / RFU IGLL1 (11728026_x_at) / Fold change /veh IGLL1 (11728026_x_at): dose or concentration left out as unconfirmed
Conditions: ProbeSet 11732277_a_at; LIST D

In the case of Nc1ncn([C@@H]2O[C@H](CO)[C@@H](O)[C@H]2O)c(=O)n1 [azacitidine], the “Fold change vs veh, FOXP1” value is reported as 0.59.
